This passage reports IC90 results from US11390604B2 (Hoffmann-La Roche Inc., priority 2019, dated 2022).

Structures can show the parent of a compound that is named as a salt.

For orientation: IC90 means the point of the concentration-response curve where the effect stands at 90%.

In one experiment the test system is Acinetobacter baumannii ATCC 17961. Put plainly: Antimicrobial susceptibility testing: 90% growth inhibitory concentration (IC90) determination. The conditions noted are these: ATCC17961, Acinetobacter baumannii ATCC 17961, Iso-Sensitest broth, read-out: ATCC 17961 IC90. It is filed as cell-based. As to the method: Antimicrobial Susceptibility Testing:
90% Growth Inhibitory Concentration (IC90) Determination
The in vitro antimicrobial activity of the compounds was determined according to the following procedure:
The assay used a 10-points Iso-Sensitest broth medium to measure quantitatively the in vitro activity of the compounds against Acinetobacter baumannii ATCC 17961.
Stock compounds in DMSO were serially twofold diluted (e.g. range from 50 to 0.097 μM final concentration) in 384 wells microtiter plates and inoculated with 49 μl the bacterial suspension in Iso-Sensitest medium to have a final cell concentration of ˜5×10^(5) CFU/ml in a final volume/well of 50 ul/well. Microtiter plates were incubated at 35±2° C.
Bacterial cell growth was determined with the measurement of optical density at X=600 nm each 20 minutes over a time course of 16 h. Growth inhibition was calculated during the logarithmic growth of the bacterial cells with determination of the concentration inhibiting 50% (IC50) and 90% (IC90) of the growth.
Table 1 provides the 90% growth inhibitory concentrations (IC90) in micromoles per liter of the compounds of present disclosure obtained against the strain Acinetobacter baumannii ATCC 17961.
With `Cn1c(-c2cn(C3CC3(F)F)nc2C(F)(F)F)cnc1C(=O)Nc1ccc(C(=O)N[C@H]2[C@@H]3CN(C(=O)N[C@@H]4CCC[C@@H]4N)C[C@@H]32)c(Cl)c1` (mixture of isomers) [Example 186, cis-N-[(1R,2S)-2-aminocyclopentyl]-6-[[2-chloro-4-[[5-[1-(2,2-difluorocyclopropyl)-3-(trifluoromethyl)pyrazol-4-yl]-1-methylimidazole-2-carbonyl]amino]benzoyl]amino]-3-azabicyclo[3.1.0]hexane-3-carboxamide, formate salt], the IC90 was 150 nM. Still for that read-out and setting: then `Cn1c(-c2cn(C3CC3(F)F)nc2C(F)(F)F)cnc1C(=O)Nc1ccc(C(=O)NC2[C@H]3CN(C(=O)N4CC[C@@H](N)C4)C[C@@H]23)c(Cl)c1` (mixture of isomers) [Example 192, N-[4-[[cis-3-[(3R)-3-aminopyrrolidine-1-carbonyl]-3-azabicyclo[3.1.0]hexan-6-yl]carbamoyl]-3-chlorophenyl]-5-[1-(2,2-difluorocyclopropyl)-3-(trifluoromethyl)pyrazol-4-yl]-1-methylimidazole-2-carboxamide, formate salt], with 180 nM; and `Cn1c(-c2cn(C3CC3(F)F)nc2C(F)(F)F)cnc1C(=O)Nc1ccc(C(=O)N[C@H]2[C@@H]3CN(C(=O)N[C@H]4CNC[C@@H]4O)C[C@@H]32)c(Cl)c1` (mixture of isomers) [Example 381, exo-6-(2-chloro-4-(5-(1-(2,2-difluorocyclopropyl)-3-(trifluoromethyl)-1H-pyrazol-4-yl)-1-methyl-1H-imidazole-2-carboxamido)benzamido)-N-((3S,4S)-4-hydroxypyrrolidin-3-yl)-3-azabicyclo[3.1.0]hexane-3-carboxamide formate], with 123 nM.

As to `Cn1c(-c2cn(C3CC3(F)F)nc2C(F)(F)F)cnc1C(=O)Nc1ccc(C(=O)N[C@H]2[C@@H]3CN(C(=O)N[C@@H]4CNC[C@H]4O)C[C@@H]32)c(Cl)c1` (mixture of isomers) [Example 382, exo-6-[[2-chloro-4-[[5-[1-(2,2-difluorocyclopropyl)-3-(trifluoromethyl)pyrazol-4-yl]-1-methylimidazole-2-carbonyl]amino]benzoyl]amino]-N-[trans-4-hydroxypyrrolidin-azabicyclo[3.1.0]hexane-3-carboxamide, formate salt], the IC90 is 127 nM.

Regarding `CCc1cc(NC(=O)c2ncc(-c3cn(CC#N)nc3C(F)(F)F)n2C)ccc1C(=O)N1CCN(C(=O)N2CC[C@H](C)[C@H](N)C2)CC1` (racemic) [Example 137, 5-[1-(cyanomethyl)-3-(trifluoromethyl)pyrazol-4-yl]-N-[3-ethyl-4-[4-[rac-(3R,4R)-3-amino-4-methylpiperidine-1-carbonyl]piperazine-1-carbonyl]phenyl]-1-methylimidazole-2-carboxamide;formic acid], the IC90 amounted to 845 nM. On the same count and under the same terms, then `Cn1c(-c2cn(C3CC3(F)F)nc2C(F)(F)F)cnc1C(=O)Nc1ccc(C(=O)NC2[C@H]3CN(C(=O)N[C@H]4CCNC4)C[C@@H]23)c(Cl)c1` (mixture of isomers) [Example 189], with 167 nM; and `Cn1c(-c2cn(C3CC3(F)F)nc2C(F)(F)F)cnc1C(=O)Nc1ccc(C(=O)NC2CCN(C(=O)N[C@H]3C[C@@H](N)C3)CC2)c(Cl)c1` (mixture of isomers) [Example 237, rac-N-((1s,3s)-3-aminocyclobutyl)-4-(2-chloro-4-(5-(1-(2,2-difluorocyclopropyl)-3-(trifluoromethyl)-1H-pyrazol-4-yl)-1-methyl-1H-imidazole-2-carboxamido)benzamido)piperi-dine-1-carboxamide formate], with 271 nM.

As to `Cn1c(-c2cn(C3CC3(F)F)nc2C(F)(F)F)cnc1C(=O)Nc1ccc(C(=O)N2C[C@H]3CNC[C@H]3C2)c(Cl)c1` (mixture of isomers) [Example 271, rac-N-(3-chloro-4-((3aR,6aS)-octahydropyrrolo[3,4-c]pyrrole-2-carbonyl)phenyl)-5-(1-(2,2-difluorocyclopropyl)-3-(trifluoromethyl)-1H-pyrazol-4-yl)-1-methyl-1H-imidazole-2-carboxamide formate], the IC90 came out at 335 nM. In the case of `Cn1c(-c2cn(CC(F)F)nc2C(F)(F)F)cnc1C(=O)Nc1ccc(S(=O)(=O)N2CCN(C(=O)N[C@@H]3CNC[C@H]3O)CC2)cc1` (racemic) [Example 279, rac-4-((4-(5-(1-(2,2-difluoroethyl)-3-(trifluoromethyl)-1H-pyrazol-4-yl)-1-methyl-1H-imidazole-2-carboxamido)phenyl)sulfonyl)-N-((3R,4R)-4-hydroxypyrrolidin-3-yl)piperazine-1-carboxamide formate], the IC90 came out at 344 nM. As to `CO[C@H]1CNC[C@@H]1NC(=O)c1ccc(NC(=O)c2ncc(-c3cn(C4CC4(F)F)nc3C(F)(F)F)n2C)cc1Cl` (mixture of isomers) [Example 280, N-(3-chloro-4-((trans-4-methoxypyrrolidin-3-yl)carbamoyl)phenyl)-5-(1-(2,2-difluorocyclopropyl)-3-(trifluoromethyl)-1H-pyrazol-4-yl)-1-methyl-1H-imidazole-2-carboxamide formate], the IC90 is 345 nM.

Regarding `Cn1c(-c2cn(C3CC3(F)F)nc2C(F)(F)F)cnc1C(=O)Nc1ccc(C(=O)NC2C[C@@H]3CC[C@@H](C2)N3)c(Cl)c1` (mixture of isomers) [Example 283, rac-N-(4-(((1R,3s,5S)-8-azabicyclo[3.2.1]octan-3-yl)carbamoyl)-3-chlorophenyl)-5-(1-(2,2-difluorocyclopropyl)-3-(trifluoromethyl)-1H-pyrazol-4-yl)-1-methyl-1H-imidazole-2-carboxamide formate], the IC90 came out at 348 nM. Take `Cn1c(-c2cn(C3CC3(F)F)nc2C(F)(F)F)cnc1C(=O)Nc1ccc(C(=O)N2C[C@H]3CN(C(=O)N[C@H]4CNC[C@@H]4O)C[C@H]3C2)c(Cl)c1` (mixture of isomers) [Example 288, rac-(3aR,6aS)-5-(2-chloro-4-(5-(1-(2,2-difluorocyclopropyl)-3-(trifluoromethyl)-1H-pyrazol-4-yl)-1-methyl-1H-imidazole-2-carboxamido)benzoyl)-N-((3R,4R)-4-hydroxypyrrolidin-3-yl)hexahydropyrrolo[3,4-c]pyrrole-2(1H)-carboxamide formate]: the IC90 is 354 nM.

Still in this experiment, the particulars now being: Acinetobacter baumannii, ATCC17961, read-out: ATCC 17961 IC90, Acinetobacter baumannii ATCC 17961, Iso-Sensitest broth.
For the compound `Cn1c(-c2cn(C3CC3(F)F)nc2C(F)(F)F)cnc1C(=O)Nc1ccc(C(=O)NCC2CCCN(C(=O)N[C@H]3CNC[C@@H]3O)C2)c(Cl)c1` (mixture of isomers) [Example 226, formate], the IC90 was determined as 259 nM. Turning to `Cn1c(-c2cn(CC3CC3(F)F)nc2C(F)(F)F)cnc1C(=O)Nc1ccc(C(=O)N2CCN(C(=O)N[C@H]3C[C@@H](N)C3)CC2)c(Cl)c1` (mixture of isomers) [Example 254, rac-N-((1s,3s)-3-aminocyclobutyl)-4-(2-chloro-4-(5-(1-((2,2-difluorocyclopropyl)methyl)-3-(trifluoromethyl)-1H-pyrazol-4-yl)-1-methyl-1H-imidazole-2-carboxamido)benzoyl)piperazine-1-carboxamide hydrochloride], the IC90 was found to be 311 nM.
